Results: US4532240A, “Diaminopyrimidines” (Warner-Lambert Company, priority 1983, dated 1985)

Experiments:
[1] = system: L1210 cells; test: In vitro antitumor screening on L1210 murine leukemia cell line (growth, Coulter counter); assay type: cell-based; conditions: Mus musculus, L1210, 72 h; three days, 37° C., 5% CO2; read-out: L1210 Leukemia in vitro ID50
Description: L1210 cells, a murine leukemia cell line, were grown in RPMI 1640 supplemented with 5% fetal bovine serum and gentamicin (50 μg/ml).
Drug dilutions were prepared in the appropriate solvent and 20 μl of each dilution were added to 24-well Linbro tissue culture plates, followed by the addition of M 2.0 ml of cell suspension containing 3×10^4cells per ml. Solvent and medium controls were included in each test. After incubation at 37° C. for three days in 5% CO2, the contents of each well were removed and the cells counted in a ZBI Coulter counter. Percent growth was calculated relative to the controls and the levels of drug activity were expressed as ID50 in moles per liter using probit paper.

[2] = system: M. faecalis; test: Antibacterial disk zone of inhibition, M. faecalis (as headed); assay type: cell-based, Streptococcus faecalis 05045; conditions: Enterococcus faecalis, read-out: Inhibition Zone diameter; for zone of inhibition at 10 µg/mL: 0.01 mg/ml; for zone of inhibition at 100 µg/mL: 0.1 mg/ml
Description: (§1) Vegetative bacterial isolates are maintained on agar slants or in liquid media, hereby designated as inoculum media. The cultures are transferred at regular intervals in such media. (See Table IV for the corresponding inoculum media of each culture.) The organisms are generally transferred either onto agar slants or into liquid inoculum media and incubated at 37° C. (at 28° C. with Xanthomonas sp.) overnight (18-20 hours).
(§2) The microbial cells from the overnight agar slants are then scraped off and suspended in saline solution (0.85% NaCl). The microbial concentrations are adjusted to a light transmission of 8.6% using a PerkinElmer Model 35 spectrophotometer (550 nm). For the organisms that are maintained in liquid media, one of two procedures is followed: (1) the culture suspension is first centrifuged at 5000 rpm for five minutes. The pellet is resuspended in 0.85% saline to 8.6% light transmittancy; (2) an aliquot of the culture suspension is to be added directly to the assay medium.
(§3) A given molten-agar assay medium, maintained in a flask at approximately 45° C., is inoculated with 0.16-10 ml of an appropriate cell or spore suspension per 100 ml of medium. Fifty ml of the inoculated medium is poured into a Bio-Assay dish (A/S Nunc; Gibco Laboratories Catalog Number 240835) and spread evenly across the bottom, then allowed to solidify at room temperature. Each agar dish is inverted and refrigerated until used.
(§4) The compounds or samples to be tested are dissolved in suitable solvents, e.g., alcohols, dimethylsulfoxide, or N,N-dimethylformamide. The samples are generally dissolved so that the final concentration of the solvent is <10%.* The compounds are tested at different concentrations: 3,000; 1,000; 500; 100; and 10 mcg/ml. Paper discs (12.7 mm diameter) saturated with a given concentration of test compound are placed onto the seeded agar dishes with a pair of forceps.
(§5) The disked agar dishes are incubated at 37° C. (28° C. for Xanthamonas sp.) for 18-20 hours. Active compounds show a zone of inhibition around the disc. The diameter of the zone is measured in mm. The zone diameter of active compounds ranges from a minimum of 13.5 mm to as high as 60 mm. The size of the zone diameter generally reflects the activity of the compound: the larger the zone the greater the activity.

[3] = system: B. catarrhalis; test: Antibacterial disk zone of inhibition, B. catarrhalis; assay type: cell-based, Branhamella catarrhalis 03596; conditions: Moraxella catarrhalis, read-out: Inhibition Zone diameter; for zone of inhibition at 500 µg/mL: 0.5 mg/ml; for zone of inhibition at 100 µg/mL: 0.1 mg/ml
Description: as §1, §2, §3, §4, §5

[4] = system: X. phaseoli; test: Antibacterial disk zone of inhibition, X. phaseoli; assay type: cell-based, Xanthomonas phascoli 06002; conditions: Xanthomonas; 3.0 mg/ml; read-out: Inhibition Zone diameter
Description: as §1, §2, §3, §4, §5

[5] = system: HCT-8 (human colon adenocarcinoma) cells; test: In vitro activity against HCT-8 human colon adenocarcinoma cells; assay type: cell-based; conditions: HCT-8, 60-65 hours with compound, 37° C., read-out: ID50 against human colon adenocarcinoma
Description: HCT-8 (human colon adenocarcinoma) cells are trypsinized using Trypsin-EDTA. A single cell suspension is achieved by passing the cells through a 26 gauge needle with a 20 cc syringe. A cell suspension is prepared using RPMI 1640+10% FCS+50 μg/ml garamycin with a cell concentration of approximately 30,000 cells/ml. The cell suspension is dispensed in Linbro 24-well plates; 1 ml/well. The plates are incubated for approximately 48 hours at 37° C. in a 5% CO2 atmosphere. At this time test compounds are added in the appropriate concentration. Five μl of the 200 μg/ml stock solution is added to each well in a primary test. Ten μl of the appropriate dilution is added to each well for a titration test. The plates are reincubated an additional 60-65 hours at 37° C. in a 5% CO2 atmosphere. The test is read by lysing the cells using a mix of cationic surfactant, glacial acetic acid and sodium chloride. […] of the lysed cell suspension from each well is added to 8 ml of diluent. Each sample is read on the Coulter counter (ZBI model). The activity of each sample is measured as a percentage of the controls and the data is reported as ID50, that is the molar quantity of drug required to kill 50% of the tumor cells.

[6] = system: B. subtilis; test: Antibacterial disk zone of inhibition, B. subtilis; assay type: cell-based, Bacillus subtilis 04555; conditions: Bacillus subtilis, read-out: Inhibition Zone diameter; for zone of inhibition at 100 µg/mL: 0.1 mg/ml; for zone of inhibition at 3000 µg/mL: 3.0 mg/ml
Description: as §1, §2
Isolate spore suspensions (Bacillus sp.) are maintained at 4° C. These suspensions serve as the inoculum media for assays.
as §3, §4, §5

[7] = system: S. lutea; test: Antibacterial disk zone of inhibition, S. lutea (as headed); assay type: cell-based, Micrococcus luteus 05064; conditions: Micrococcus luteus, read-out: Inhibition Zone diameter; for zone of inhibition at 10 µg/mL: 0.01 mg/ml; for zone of inhibition at 100 µg/mL: 0.1 mg/ml; for zone of inhibition at 3000 µg/mL: 3.0 mg/ml
Description: as §1, §2, §3, §4, §5

[8] = system: P388 Leukemia; test: In vivo lymphocytic leukemia P388 test in mice; design: species or system CD2 F1 mice; conditions: intraperitoneal, two single doses four days apart
Description: The in vivo lymphocytic leukemia P388 test is carried out using the test system of the United States National Cancer Institute. The animals used are either male or female CD2 F1 mice. There are six to seven animals per test group. The tumor transplant is by intraperitoneal injection of dilute ascitic fluid containing cells of lymphocytic leukemia P388. The test compounds are administered intraperitoneally in two single doses with a four-day interval between doses at various dose levels following tumor inoculation. The animals are weighed and survivors are recorded on a regular basis for 30 days. A ratio of survival time for treated (T)/control (C) animals is calculated. The criterion for efficacy is T/C×100>125%. The positive control compound in this test is 5-fluorouracil. See Cancer Chemotherapy Reports, Part 3, 3, 1 (1972) for a comprehensive discussion of the protocol.

CCc1nc(N)nc(N)c1N1CCN(c2ccc(C(=O)O)cc2)CC1 [Example 11, 4-[4-(2,4-Diamino-6-ethyl-5-pyrimidinyl)-1-piperazinyl]benzoic acid]
IC50 [1]: 10 nM
zone of inhibition at 10 µg/mL [2]: 19 mm
zone of inhibition at 500 µg/mL [3]: 27 mm
zone of inhibition at 3000 µg/mL [4]: 0 mm
IC50 [5]: 570 nM
zone of inhibition at 100 µg/mL [6]: 18 mm
zone of inhibition at 10 µg/mL [7]: 16 mm

CCCc1nc(N)nc(N)c1N1CCN(c2ccc(C(=O)OCC)cc2)CC1 [Example 18, 4-[4-(2,4-Diamino-6-propyl-5-pyrimidinyl)-1-piperazinyl]benzoic acid, ethyl ester]
IC50 [1]: 9.3 nM
zone of inhibition at 10 µg/mL [2]: 15 mm
zone of inhibition at 100 µg/mL [3]: 15 mm
zone of inhibition at 3000 µg/mL [4]: 0 mm
IC50 [5]: 210 nM
T/C × 100 ([8]; 25 mg/kg): 120%
T/C × 100 ([8]; 50 mg/kg): 149%
zone of inhibition at 3000 µg/mL [6]: 0 mm
zone of inhibition at 100 µg/mL [7]: 16 mm

Cc1nc(N)nc(N)c1N1CCN(c2ccc(S(C)(=O)=O)cc2)CC1 [Example 9, 6-Methyl-5-[4-[4-(methylsulfonyl)phenyl]-1-piperazinyl]-2,4-pyrimidinediamine, hydrate (10:2)]
IC50 [1]: 5.6 nM
zone of inhibition at 10 µg/mL [2]: 18 mm
zone of inhibition at 500 µg/mL [3]: 14 mm
zone of inhibition at 3000 µg/mL [4]: 0 mm
IC50 [5]: 61 nM
T/C × 100 ([8]; 6.25 mg/kg): 128%
T/C × 100 ([8]; 12.5 mg/kg): 131%
T/C × 100 ([8]; 25 mg/kg): 140%
T/C × 100 ([8]; 50 mg/kg): 198%
zone of inhibition at 10 µg/mL ([6]; 0.01 mg/ml): 29 mm
zone of inhibition at 3000 µg/mL [7]: 0 mm

CCCc1nc(N)nc(N)c1N1CCN(c2ccc(C(=O)O)cc2)CC1 [Example 15, 4-[4-(2,4-Diamino-6-propyl-5-pyrimidinyl)-1-piperazinyl]benzoic acid]
IC50 [1]: 43 nM
zone of inhibition at 10 µg/mL [2]: 15 mm
zone of inhibition at 500 µg/mL [3]: 19 mm
zone of inhibition at 3000 µg/mL [4]: 0 mm
IC50 [5]: 280 nM
zone of inhibition at 3000 µg/mL [6]: 0 mm
zone of inhibition at 100 µg/mL [7]: 16 mm

CC(=O)c1ccc(N2CCN(c3c(C)nc(N)nc3N)CC2)cc1 [Example 5, 5-[4-(4-acetylphenyl)-1-piperazinyl]-6-methyl-2,4-pyrimidinediamine, hydrate (100:18)]
IC50 [1]: 5 nM
zone of inhibition at 100 µg/mL [2]: 16 mm
zone of inhibition at 100 µg/mL [3]: 24 mm
zone of inhibition at 3000 µg/mL [4]: 0 mm
IC50 [5]: 510 nM
T/C × 100 ([8]; 6.25 mg/kg): 123%
T/C × 100 ([8]; 12.5 mg/kg): 144%
T/C × 100 ([8]; 25 mg/kg): 181%
T/C × 100 ([8]; 50 mg/kg): 250%
zone of inhibition at 100 µg/mL [6]: 23 mm
zone of inhibition at 10 µg/mL [7]: 14 mm

CCOC(=O)CCC(NC(=O)c1ccc(N2CCN(c3c(N)nc(N)nc3CC)CC2)cc1)C(=O)OCC (stereo not drawn) [drawing 22]
zone of inhibition at 10 µg/mL [2]: 15 mm
zone of inhibition at 10 µg/mL ([3]; 0.01 mg/ml): 20 mm
zone of inhibition at 3000 µg/mL [4]: 3 mm
zone of inhibition at 100 µg/mL [6]: 19 mm
zone of inhibition at 10 µg/mL [7]: 19 mm

Cc1nc(N)nc(N)c1N1CCN(c2ccc(C#N)cc2)CC1 [Example 19, 5-[4-(4-cyanophenyl)-1-piperazinyl]-6-methyl-2,4-pyrimidinediamine]
IC50 [1]: 1500 nM
zone of inhibition at 100 µg/mL [2]: 15 mm
zone of inhibition at 3000 µg/mL ([3]; 3.0 mg/ml): 0 mm
zone of inhibition at 3000 µg/mL [4]: 0 mm
IC50 [5]: > 1000 nM
zone of inhibition at 3000 µg/mL [6]: 0 mm
zone of inhibition at 3000 µg/mL [7]: 0 mm
